Assay results as given in patent publication US20240399032A1, “HYDROGEL FOR PROMOTING GROWTH OF MESENCHYMAL STEM CELLS, AND PREPARATION METHOD AND APPLICATION METHOD THEREOF” (The Fifth People's Hospital of Hainan Province, priority 2023, published 2024).

Legend:
[1] = test system: skin scratch model rat; test: Treatment of wound of skin scratch model DM rat; format: in vivo; conditions: applied daily on wound of left hindfoot; for time until wound healed: mecobalamin H1 group (wound without administration healed too), epalrestat M1 group (without administration healed on eighteenth day)
Description: 30 specific pathogen free (SPF) Sprague Dawley (SD) male rats aged 6-8 weeks old (weight 190 g or so) are used to construct as the DM rat model. Specifically, the STZ solution is prepared and used, and the prepared STZ solution is used within 10 minutes. The STZ solution is injected into left lower abdomens of the rats with a single dose of 55 milligrams per kilogram (mg/kg). After a week of the intraperitoneal injection of the STZ solution, the rats are in abrosia but can have water for 12 hours (h), thereafter blood glucose of the rats is detected, and the rats with blood glucose value above 12.6 […] are selected as the DM rat model. The 30 SPF SD male rats are all constructed as the DM rat model, 12 rats died before diabetic foot administration, and 2 rats died during the administration but not appearing effectiveness. Six DM model rats are selected for normal feeding for four weeks. After anesthesia, round skin wounds with each diameter of 5 mm are created on dorsal sides of hindfoots of the DM model rats to generate foot gangrene, as shown in FIG. 2. And then, the DM model rats continue to be fed regularly and the skin wounds of the DM model rats are observed every day. Therapeutic drug of mecobalamin (H1 group) is applied daily on the wound disposed on the left hindfoot of the skin scratch model rat, and then the wound of the model rat is observed. […] Therapeutic drug of epalrestat (M1 group) is applied daily on the wound disposed on the left hindfoot of the skin scratch model rat, and then the wound of the model rat is observed. After 13 days of continuous administration, the wound healed, and at the same time, the wound of the skin scratch model rat without administration healed on the eighteenth day. […] The hydrogels (T1 group, T2 group, T3 group, T4 group) are applied daily on the wounds disposed on the left hindfoots of four skin scratch model rats, and then the wounds of the 4 model rats are observed. […]

[2] = test system: Staphylococcus aureus model rat; test: Treatment of wound (foot gangrene) of Staphylococcus aureus model DM rat; format: in vivo; conditions: applied daily on wound of left hindfoot
Description: 30 specific pathogen free (SPF) Sprague Dawley (SD) male rats aged 6-8 weeks old (weight 190 g or so) are used to construct as the DM rat model. Specifically, the STZ solution is prepared and used, and the prepared STZ solution is used within 10 minutes. The STZ solution is injected into left lower abdomens of the rats with a single dose of 55 milligrams per kilogram (mg/kg). After a week of the intraperitoneal injection of the STZ solution, the rats are in abrosia but can have water for 12 hours (h), thereafter blood glucose of the rats is detected, and the rats with blood glucose value above 12.6 […] are selected as the DM rat model. The 30 SPF SD male rats are all constructed as the DM rat model, 12 rats died before diabetic foot administration, and 2 rats died during the administration but not appearing effectiveness. Six DM model rats are selected. At the third week, dorsal sides of hindfoots of the DM model rats are subcutaneously injected 10 μL of suspension containing more than […] Staphylococcus aureus, thereby obtaining a DM animal model with foot infection (also referred to as extremity infection). It can be seen from FIG. 1, on the sixth day, spontaneous foot gangrene occurs, and on the seventh day and eighth day, the foot gangrene is gradually obvious. […]

| SMILES | time until wound healed [1] [days] | time of administration until wound / foot gangrene healed ([2]; mecobalamin H4 group (untreated wound healed as well), hydrogel T10 group (control healed after 7 days)) [days] | healing of treated wound compared with untreated wound / control group ([2]; mecobalamin H4 group, hydrogel T10 group, same area of foot gangrene) | effect on wound healing ([1]; H1, M1, T1-T4 groups) |
| --- | --- | --- | --- | --- |
| CC(/C=C1\SC(=S)N(CC(=O)O)C1=O)=C\c1ccccc1 [epalrestat, Epalrestat] | 13 | – | – | – |
| C/C1=C2/[N-][C@H]([C@H](CC(N)=O)[C@@]2(C)CCC(=O)NC[C@@H](C)OP(=O)([O-])O[C@H]2[C@@H](O)[C@@H](n3cnc4cc(C)c(C)cc43)O[C@@H]2CO)[C@]2(C)N=C(/C(C)=C3N=C(/C=C4N=C1[C@@H](CCC(N)=O)C\4(C)C)[C@@H](CCC(N)=O)[C@]\3(C)CC(N)=O)[C@@H](CCC(N)=O)[C@]2(C)CC(N)=O.[CH3-].[Co+3] [mecobalamin, Mecobalamin] | 11 | 5 | no significant difference | no significant promoting effect |
